Experimental data reported in PubChem BioAssay AID2060909 (Molecular Pharmacology Branch, DTP, NCI, 2025).
Each block holds one molecule with its values, some of them ahead of it.

Tested on: 362531-283-R-J2-PDC complex spheroid viability
Experiment: Anticancer human tumor 362531-283-R-J2-PDC patient-derived colon adenocarcinoma cell line growth inhibition [RAS]
Settings: for IC50: curve of first compound; for viability, T/C: stronger effect = lower value
How it was run: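 Multi-cell-type spheroids: tumor cells plus HUVEC endothelial cells and mesenchymal stem cells. RAS-pathway inhibitors were combined with targeted agents, each dosed in half-log steps down from clinical Cmax, or from 10 microM when Cmax was unknown.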

[1] = second compound 0.00316 µM, first compound 0.0316 µM
[2] = second compound 0.00316 µM, first compound 0.1 µM
[3] = second compound 0.00316 µM, first compound 0.316 µM
[4] = second compound 0.00316 µM, first compound 1 µM
[5] = second compound 0.00316 µM, first compound 3.16 µM
[6] = second compound 0.00316 µM, first compound 10 µM
[7] = second compound 0.01 µM, first compound 0.0316 µM
[8] = second compound 0.01 µM, first compound 0.1 µM
[9] = second compound 0.01 µM, first compound 0.316 µM
[10] = second compound 0.01 µM, first compound 1 µM
[11] = second compound 0.01 µM, first compound 3.16 µM
[12] = second compound 0.01 µM, first compound 10 µM
[13] = second compound 0.0316 µM, first compound 0.0316 µM
[14] = second compound 0.0316 µM, first compound 0.1 µM
[15] = second compound 0.0316 µM, first compound 0.316 µM
[16] = second compound 0.0316 µM, first compound 1 µM
[17] = second compound 0.0316 µM, first compound 3.16 µM
[18] = second compound 0.0316 µM, first compound 10 µM
[19] = second compound 0.1 µM, first compound 0.0316 µM
[20] = second compound 0.1 µM, first compound 0.1 µM
[21] = second compound 0.1 µM, first compound 0.316 µM
[22] = second compound 0.1 µM, first compound 1 µM
[23] = second compound 0.1 µM, first compound 3.16 µM
[24] = second compound 0.1 µM, first compound 10 µM
[25] = second compound 0.316 µM, first compound 0.0316 µM
[26] = second compound 0.316 µM, first compound 0.1 µM
[27] = second compound 0.316 µM, first compound 0.316 µM
[28] = second compound 0.316 µM, first compound 1 µM
[29] = second compound 0.316 µM, first compound 3.16 µM
[30] = second compound 0.316 µM, first compound 10 µM
[31] = second compound 1 µM, first compound 0.0316 µM
[32] = second compound 1 µM, first compound 0.1 µM
[33] = second compound 1 µM, first compound 0.316 µM
[34] = second compound 1 µM, first compound 1 µM
[35] = second compound 1 µM, first compound 3.16 µM
[36] = second compound 1 µM, first compound 10 µM
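Note: spheroids exposed to the agents for 7 days before readout.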
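Throughout, for viability, T/C: luminescence viability as percent of DMSO vehicle control wells.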

- IC50 (second compound 0.00316 µM): > 10 µM
- IC50 (second compound 0.01 µM): > 10 µM
- IC50 (second compound 0.0316 µM): > 10 µM
- IC50 (second compound 0.1 µM): > 10 µM
- IC50 (second compound 0.316 µM): > 10 µM
- IC50 (second compound 1 µM): > 10 µM
Compound: Cc1nc(N2CCC3(CC2)COC(C)C3N)c(CO)nc1Sc1ccnc(N)c1Cl (stereo unspecified) + C=CC(=O)N1CCN(c2nc(OCC3CCCN3C)nc3c(F)c(-c4nc(N)cc(C)c4C(F)(F)F)c(Cl)cc23)C(C)C1
- viability, T/C [1]: 111%
- viability, T/C [2]: 102%
- viability, T/C [3]: 103%
- viability, T/C [4]: 94.3%
- viability, T/C [5]: 83.5%
- viability, T/C [6]: 69.2%
- viability, T/C [7]: 110%
- viability, T/C [8]: 101%
- viability, T/C [9]: 97.5%
- viability, T/C [10]: 86.3%
- viability, T/C [11]: 85.9%
- viability, T/C [12]: 77.5%
- viability, T/C [13]: 111%
- viability, T/C [14]: 111%
- viability, T/C [15]: 99.3%
- viability, T/C [16]: 96.8%
- viability, T/C [17]: 81.5%
- viability, T/C [18]: 73.8%
- viability, T/C [19]: 117%
- viability, T/C [20]: 104%
- viability, T/C [21]: 98.4%
- viability, T/C [22]: 92.4%
- viability, T/C [23]: 82.4%
- viability, T/C [24]: 79.8%
- viability, T/C [25]: 111%
- viability, T/C [26]: 101%
- viability, T/C [27]: 118%
- viability, T/C [28]: 89.2%
- viability, T/C [29]: 88.5%
- viability, T/C [30]: 79.3%
- viability, T/C [31]: 108%
- viability, T/C [32]: 111%
- viability, T/C [33]: 101%
- viability, T/C [34]: 86.1%
- viability, T/C [35]: 83.1%
- viability, T/C [36]: 68%

- IC50 (second compound 0.00316 µM): 3.84 µM
- IC50 (second compound 0.01 µM): 5.87 µM
- IC50 (second compound 0.0316 µM): 4.67 µM
- IC50 (second compound 0.1 µM): 6.19 µM
- IC50 (second compound 0.316 µM): 7.66 µM
- IC50 (second compound 1 µM): 8.02 µM
Compound: NC1c2ccccc2OC12CCN(c1cnc3c(N4CCCc5ncccc54)n[nH]c3n1)CC2 (stereo unspecified) + C=CC(=O)N1CCN(c2nc(OCC3CCCN3C)nc3c(F)c(-c4nc(N)cc(C)c4C(F)(F)F)c(Cl)cc23)C(C)C1
- viability, T/C [1]: 102%
- viability, T/C [2]: 76.8%
- viability, T/C [3]: 83.8%
- viability, T/C [4]: 60%
- viability, T/C [5]: 56.2%
- viability, T/C [6]: 37.9%
- viability, T/C [7]: 92.1%
- viability, T/C [8]: 82.2%
- viability, T/C [9]: 75.1%
- viability, T/C [10]: 72.5%
- viability, T/C [11]: 57.8%
- viability, T/C [12]: 42.3%
- viability, T/C [13]: 89.4%
- viability, T/C [14]: 86.7%
- viability, T/C [15]: 73.3%
- viability, T/C [16]: 66.6%
- viability, T/C [17]: 58.3%
- viability, T/C [18]: 38.4%
- viability, T/C [19]: 93%
- viability, T/C [20]: 83.6%
- viability, T/C [21]: 79.2%
- viability, T/C [22]: 64%
- viability, T/C [23]: 61.9%
- viability, T/C [24]: 43%
- viability, T/C [25]: 94.4%
- viability, T/C [26]: 91.6%
- viability, T/C [27]: 78.4%
- viability, T/C [28]: 68.9%
- viability, T/C [29]: 65.7%
- viability, T/C [30]: 44.5%
- viability, T/C [31]: 91%
- viability, T/C [32]: 79.2%
- viability, T/C [33]: 74.7%
- viability, T/C [34]: 70%
- viability, T/C [35]: 61.9%
- viability, T/C [36]: 45.7%

- IC50 (second compound 0.00316 µM): 0.129 µM
- IC50 (second compound 0.01 µM): 0.169 µM
- IC50 (second compound 0.0316 µM): 0.154 µM
- IC50 (second compound 0.1 µM): 0.13 µM
- IC50 (second compound 0.316 µM): 0.18 µM
- IC50 (second compound 1 µM): 0.144 µM
Compound: Nc1ccn(C2OC(CO)C(O)C2(F)F)c(=O)n1 (stereo unspecified) + C=CC(=O)N1CCN(c2nc(OCC3CCCN3C)nc3c(F)c(-c4nc(N)cc(C)c4C(F)(F)F)c(Cl)cc23)C(C)C1
- viability, T/C (second compound 0.00316 µM, first compound 0.00316 µM): 107%
- viability, T/C (second compound 0.00316 µM, first compound 0.01 µM): 100%
- viability, T/C [1]: 81.2%
- viability, T/C [2]: 61.8%
- viability, T/C [3]: 22.7%
- viability, T/C [4]: 29.7%
- viability, T/C (second compound 0.01 µM, first compound 0.00316 µM): 93.5%
- viability, T/C (second compound 0.01 µM, first compound 0.01 µM): 95.3%
- viability, T/C [7]: 80.9%
- viability, T/C [8]: 70%
- viability, T/C [9]: 21.7%
- viability, T/C [10]: 30.7%
- viability, T/C (second compound 0.0316 µM, first compound 0.00316 µM): 93.5%
- viability, T/C (second compound 0.0316 µM, first compound 0.01 µM): 91%
- viability, T/C [13]: 87.7%
- viability, T/C [14]: 64.9%
- viability, T/C [15]: 23.6%
- viability, T/C [16]: 27%
- viability, T/C (second compound 0.1 µM, first compound 0.00316 µM): 94.9%
- viability, T/C (second compound 0.1 µM, first compound 0.01 µM): 94.9%
- viability, T/C [19]: 77.4%
- viability, T/C [20]: 61%
- viability, T/C [21]: 23.6%
- viability, T/C [22]: 31.7%
- viability, T/C (second compound 0.316 µM, first compound 0.00316 µM): 93.8%
- viability, T/C (second compound 0.316 µM, first compound 0.01 µM): 97.1%
- viability, T/C [25]: 89.4%
- viability, T/C [26]: 75.7%
- viability, T/C [27]: 23.3%
- viability, T/C [28]: 27.6%
- viability, T/C (second compound 1 µM, first compound 0.00316 µM): 105%
- viability, T/C (second compound 1 µM, first compound 0.01 µM): 97.9%
- viability, T/C [31]: 78.9%
- viability, T/C [32]: 65.2%
- viability, T/C [33]: 25.1%
- viability, T/C [34]: 29.7%
